# From the supplement of paper PMC10307832
# What was measured:
# Test in all cases: relative viability (nuclei count vs DMSO), 5 days (fraction); higher = more cells survive
# [1] = compound: CN[C@@H]1C[C@H]2O[C@@](C)([C@@H]1OC)n1c3ccccc3c3c4c(c5c6ccccc6n2c5c31)C(=O)NC4 [Staurosporine] + Cc1nc(Nc2ncc(C(=O)Nc3c(C)cccc3Cl)s2)cc(N2CCN(CCO)CC2)n1 [Dasatinib] (partner 0.075 µM)
# Procedure, shortened: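 Nuclei were stained with Hoechst during a one-step fixation (final 0.05% Triton X-100, 1% formaldehyde, 1 ug/ml Hoechst) carried out 5 days after dosing, then counted on 4× images. The cells, lung cancer lines in 1536-well plates, had been dosed by pin tool the day after seeding with one drug alone or a fixed anchor-drug dose plus five library-drug doses (not always all listed) in √10 steps. Relative viability is the nuclei count in treated wells divided by that in vehicle wells, and each value is the median of duplicate plates.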
# [2] = compound: O=c1[nH]cc(F)c(=O)[nH]1 [5-Fluorouracil]
# Procedure, shortened: (§1)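 MetaXpress counted nuclei in 4× images of lung cancer cell lines that had been fixed, permeabilised and Hoechst-stained in one step. Before that, cells in 1536-well plates were kept overnight at 37 °C, pinned with five √10-spaced library-drug doses on vehicle-anchored plates, and cultured 5 days without medium change. Viability takes treated-well nuclei over vehicle-well nuclei and uses the median across plates. Plates were accepted only at control CV below 25% and at least one doubling.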
# [3] = compound: CN[C@@H]1C[C@H]2O[C@@](C)([C@@H]1OC)n1c3ccccc3c3c4c(c5c6ccccc6n2c5c31)C(=O)NC4 [Staurosporine]
# Procedure, shortened: as §1
# [4] = compound: CC1=C(CC(=O)O)c2cc(F)ccc2/C1=C\c1ccc([S+](C)[O-])cc1 [Sulindac]
# Procedure, shortened: as §1
Cell Line,relative viability ([1]; first compound 0.005 µM),relative viability ([1]; first compound 0.01581 µM),relative viability ([1]; first compound 0.05 µM),relative viability ([1]; first compound 0.1581 µM),relative viability ([1]; first compound 0.5 µM),relative viability ([2]; 0.02 µM),relative viability ([2]; 0.2 µM),relative viability ([2]; 0.6325 µM),relative viability ([2]; 2 µM),relative viability ([3]; 0.005 µM),relative viability ([3]; 0.01581 µM),relative viability ([3]; 0.05 µM),relative viability ([3]; 0.1581 µM),relative viability ([3]; 0.5 µM),relative viability ([4]; 0.08 µM),relative viability ([4]; 0.253 µM),relative viability ([4]; 0.8 µM),relative viability ([4]; 2.53 µM),relative viability ([4]; 8 µM)
NCI-H2085,0.244,0.257,0.271,0.235,0.242,0.931,1.02,0.989,0.813,0.833,0.586,0.624,0.361,0.285,0.919,1,0.891,0.971,1.04
NCI-H2087,0.701,0.431,0.311,0.0727,0.0691,0.992,1.02,0.688,0.571,0.927,0.561,0.243,0.0918,0.0911,1.05,1.13,0.954,1.05,1.28
NCI-H2126,0.501,0.275,0.301,0.257,0.222,0.915,0.532,0.356,0.351,0.875,0.397,0.582,0.391,0.303,0.975,1.01,0.842,1.03,1.05
NCI-H2170,0.91,,0.648,0.106,0.117,1.02,0.88,0.529,0.464,1.07,,0.766,0.384,0.161,1.13,1.03,0.884,1.06,0.991
NCI-H2228,0.328,0.245,0.232,0.069,0.0624,0.976,1.02,0.75,0.458,0.735,0.471,0.407,0.145,0.107,1.2,1.08,0.916,1.03,1.18
NCI-H2342,0.297,0.243,0.26,0.234,0.27,0.955,1.02,0.894,0.783,1.09,0.652,0.525,0.461,0.36,0.912,0.946,0.843,0.99,0.99
NCI-H2347,0.226,0.212,0.19,0.233,0.232,0.928,0.834,0.49,0.448,0.706,0.524,0.457,0.391,0.376,1.01,1.06,0.759,1.03,1.11
NCI-H2405,0.111,0.11,0.114,0.0659,0.0751,1.01,1.17,0.956,0.75,,0.209,0.158,0.13,0.118,1.05,1.09,0.958,0.944,1.16
NCI-H3122,0.861,,0.756,0.232,0.0614,1,0.848,0.39,0.241,1.04,,0.893,0.255,0.357,1.04,1.03,0.949,0.962,1.08
PC-3 [JPC-3],,0.424,0.375,0.235,0.204,0.967,1.1,0.954,0.743,1.02,0.36,0.698,0.384,0.317,1.16,1.03,0.926,1.02,1.12
PC-14,0.0423,0.0358,0.0229,0.0364,0.0239,1.02,1.13,0.898,0.552,0.691,0.404,0.152,0.0788,0.0565,1.11,1.14,0.786,1.08,1.18
RERF-LC-KJ,0.416,0.364,0.223,0.192,0.201,1.05,0.912,0.975,0.828,0.95,0.682,0.501,0.237,0.211,1.09,1.09,0.814,1.06,1.02
SK-LU-1,0.183,,,0.102,0.1,0.996,1.1,0.968,0.83,0.704,0.274,0.191,0.207,0.165,1.21,1.12,0.805,0.975,1.28
SK-MES-1,0.21,0.22,0.154,0.126,0.106,1.04,0.634,0.364,0.316,0.572,0.334,0.213,0.217,0.127,1.18,1.14,0.818,1.08,1.1
SW 900,0.473,0.185,0.21,0.191,0.158,0.693,0.883,0.859,0.476,0.624,0.368,0.297,0.19,0.102,0.644,0.939,,0.601,0.928
SW 1573,0.129,0.116,0.0863,0.0538,0.0496,1.01,1.03,0.938,0.532,0.622,0.277,0.187,0.137,0.076,1.05,1.09,0.861,0.999,1.21
